Converted amounts (≈) assume the structure as drawn. Each block holds one compound with its values, some of them ahead of it.
Experiments:
[1] = Lipophilicity, log D of compound at pH 7.4; format: physicochemical; settings: buffer
[2] = Solubility of the compound; format: physicochemical
[3] = Tmax in BALB/C mouse at 10 mg/kg, iv measured upto 24 hrs by LC-MS analysis; format: ADME, organism-based; settings: in vivo
[4] = Cmax in BALB/C mouse at 10 mg/kg, iv measured upto 24 hrs by LC-MS analysis; format: ADME, organism-based; set-up: route intravenous, dose 10 mg/kg, time <= 24; settings: in vivo
[5] = AUClast in BALB/C mouse at 10 mg/kg, iv measured upto 24 hrs by LC-MS analysis; format: ADME, organism-based; set-up: route intravenous, dose 10 mg/kg, time <= 24; settings: in vivo
[6] = Tmax in BALB/C mouse at 10 mg/kg, po measured upto 24 hrs by LC-MS analysis; format: ADME, organism-based; settings: in vivo
[7] = Cmax in BALB/C mouse at 10 mg/kg,po measured upto 24 hrs by LC-MS analysis; format: ADME, organism-based; set-up: route oral, dose 10 mg/kg, time <= 24; settings: in vivo
[8] = AUClast in BALB/C mouse at 10 mg/kg,po measured upto 24 hrs by LC-MS analysis; format: ADME, organism-based; set-up: route oral, dose 10 mg/kg, time <= 24; settings: in vivo
[9] = Oral bioavailability in BALB/C mouse at 10 mg/kg measured upto 24 hrs by LC-MS analysis; format: ADME, organism-based; settings: in vivo
[10] = Tmax in Sprague-Dawley rat at 2 mg/kg, iv measured upto 24 hrs by LC-MS/MS analysis; format: ADME, organism-based; settings: in vivo
[11] = Cmax in Sprague-Dawley rat at 2 mg/kg, iv measured upto 24 hrs by LC-MS/MS analysis; format: ADME, organism-based; set-up: route intravenous, dose 2 mg/kg, time <=24; settings: in vivo
[12] = AUClast in Sprague-Dawley rat at 2 mg/kg, iv measured upto 24 hrs by LC-MS/MS analysis; format: ADME, organism-based; set-up: route intravenous, dose 2 mg/kg, time <=24; settings: in vivo
[13] = Volume of distribution at steady state in Sprague-Dawley rat at 2 mg/kg, iv measured upto 24 hrs by LC-MS/MS analysis; format: ADME, organism-based; settings: in vivo, read-out: Vdss
[14] = Tmax in Sprague-Dawley rat at 10 mg/kg, po measured upto 24 hrs by LC-MS/MS analysis; format: ADME, organism-based; settings: in vivo
[15] = Cmax in Sprague-Dawley rat at 10 mg/kg, po measured upto 24 hrs by LC-MS/MS analysis; format: ADME, organism-based; set-up: route oral, dose 10 mg/kg, time <=24; settings: in vivo
[16] = Oral bioavailability in Sprague-Dawley rat at 10 mg/kg measured upto 24 hrs by LC-MS/MS analysis; format: ADME, organism-based; settings: in vivo
[17] = Cmax in Beagle dog at 1 mg/kg, iv measured upto 24 hrs by LC-MS/MS analysis; format: ADME, organism-based, Canis lupus familiaris; set-up: route intravenous, dose 1 mg/kg, time <=24; settings: in vivo
[18] = AUClast in Beagle dog at 1 mg/kg, iv measured upto 24 hrs by LC-MS/MS analysis; format: ADME, organism-based, Canis lupus familiaris; set-up: route intravenous, dose 1 mg/kg, time <=24; settings: in vivo
[19] = Volume of distribution at steady state in Beagle dog at 1 mg/kg, iv measured upto 24 hrs by LC-MS/MS analysis; format: ADME, organism-based, Canis lupus familiaris; settings: in vivo, 1 mg/kg, 24 h
[20] = Tmax in Beagle dog at 5 mg/kg, po measured upto 24 hrs by LC-MS/MS analysis; format: ADME, organism-based, Canis lupus familiaris; settings: in vivo
[21] = Cmax in Beagle dog at 5 mg/kg, po measured upto 24 hrs by LC-MS/MS analysis; format: ADME, organism-based, Canis lupus familiaris; set-up: route oral, dose 5 mg/kg, time <=24; settings: in vivo
[22] = AUClast in Beagle dog at 5 mg/kg, po measured upto 24 hrs by LC-MS/MS analysis; format: ADME, organism-based, Canis lupus familiaris; set-up: route oral, dose 5 mg/kg, time <=24; settings: in vivo
[23] = Oral bioavailability in Beagle dog at 5 mg/kg measured upto 24 hrs by LC-MS/MS analysis; format: ADME, organism-based, Canis lupus familiaris; settings: in vivo
[24] = Tmax in BALB/C mouse at 30 mg/kg, po measured upto 24 hrs by LC-MS analysis; format: ADME, organism-based; settings: in vivo
[25] = Cmax in BALB/C mouse at 30 mg/kg,po measured upto 24 hrs by LC-MS analysis; format: ADME, organism-based; set-up: route oral, dose 30 mg/kg, time <= 24; settings: in vivo
[26] = Oral bioavailability in BALB/C mouse at 30 mg/kg measured upto 24 hrs by LC-MS analysis; format: ADME, organism-based; settings: in vivo
[27] = Drug uptake in CB.17 SCID mouse tumor xenografted with OCI-LY10 cells at 3 mg/kg, po once daily for 24 days; format: ADME, organism-based, Neoplasm; settings: time 24 day, read-out: Drug uptake
[28] = Plasma concentration in CB.17 SCID mouse xenografted with OCI-LY10 cells at 3 mg/kg, po once daily for 24 days; format: ADME, organism-based; settings: time 24 day
[29] = Drug uptake in CB.17 SCID mouse tumor xenografted with TMD-8 cells at 3 mg/kg, po once daily for 19 days; format: ADME, organism-based, Neoplasm; settings: time 19 day, read-out: Drug uptake
[30] = Plasma concentration in CB.17 SCID mouse xenografted with TMD-8 cells at 3 mg/kg, po once daily for 19 days; format: ADME, organism-based; settings: time 19 day
[31] = Drug uptake in CB.17 SCID mouse tumor xenografted with SUDHL-6 cells assessed as effect on body weight at 5 mg/kg, po once daily for 15 days; format: ADME, organism-based, Neoplasm; settings: time 15 day, read-out: Drug uptake
[32] = Plasma concentration in CB.17 SCID mouse tumor xenografted with SUDHL-6 cells assessed as effect on body weight at 5 mg/kg, po once daily for 15 days; format: ADME, organism-based; settings: time 15 day
[33] = Tmax in Sprague-Dawley rat at 3 mg/kg, iv measured upto 24 hrs by LC-MS/MS analysis; format: ADME, organism-based; settings: in vivo
[34] = Cmax in Sprague-Dawley rat at 3 mg/kg, iv measured upto 24 hrs by LC-MS/MS analysis; format: ADME, organism-based; set-up: route intravenous, dose 3 mg/kg, time <=24; settings: in vivo
[35] = Volume of distribution at steady state in Sprague-Dawley rat at 3 mg/kg, iv measured upto 24 hrs by LC-MS/MS analysis; format: ADME, organism-based; settings: in vivo, read-out: Vdss
[36] = Tmax in Sprague-Dawley rat at 3 mg/kg, po measured upto 24 hrs by LC-MS/MS analysis; format: ADME, organism-based; settings: in vivo
[37] = Cmax in Sprague-Dawley rat at 3 mg/kg, po measured upto 24 hrs by LC-MS/MS analysis; format: ADME, organism-based; set-up: route oral, dose 3 mg/kg, time <=24; settings: in vivo
[38] = Tmax in Beagle dog at 1 mg/kg, iv measured upto 24 hrs by LC-MS/MS analysis; format: ADME, organism-based, Canis lupus familiaris; settings: in vivo
[39] = Tmax in Beagle dog at 1 mg/kg, po measured upto 24 hrs by LC-MS/MS analysis; format: ADME, organism-based, Canis lupus familiaris; settings: in vivo
[40] = Cmax in Beagle dog at 1 mg/kg, po measured upto 24 hrs by LC-MS/MS analysis; format: ADME, organism-based, Canis lupus familiaris; set-up: route oral, dose 1 mg/kg, time <=24; settings: in vivo
[41] = Oral bioavailability in Beagle dog at 1 mg/kg measured upto 24 hrs by LC-MS/MS analysis; format: ADME, organism-based, Canis lupus familiaris; settings: in vivo
[42] = Volume of distribution at steady state in BALB/C mouse at 10 mg/kg, iv measured upto 24 hrs by LC-MS analysis; format: ADME, organism-based; settings: in vivo, read-out: Vdss
in vivo = settings: BALB/C, mouse, po, 30 mg/kg

logD [1]: 3.26
solubility [2]: 44.9 µM (≈ 22.9 µg/mL)
SMILES: Cc1nc(N)nc(N[C@@H](C)c2c(-c3ccccc3)c(=O)n3cc(F)ccc3c2-c2ccc(F)cc2)c1C#N

SMILES: C[C@H](Nc1ncnc2[nH]cnc12)c1nc2cccc(Cl)c2c(=O)n1-c1ccccc1
Tmax [3]: 4.98 min
Cmax [4]: 13300 nM
AUC(0-t) at 24 h [5]: 4.55 µM·h
Tmax [6]: 4.98 min
Cmax [7]: 930 nM
AUC(0-t) at 24 h [8]: 0.328 µM·h
bioavailability [9]: 7%
Tmax [10]: 4.98 min
Cmax [11]: 3640 nM
AUC(0-t) at 24 h [12]: 2.77 µM·h
Vd [13]: 1.66 L/kg
Tmax [14]: 72 min
Cmax [15]: 1880 nM
bioavailability [16]: 57%
Cmax [17]: 1200 nM
AUClast [18]: 1.88 µM·h
Vdss [19]: 57 L/kg
Tmax [20]: 79.8 min
Cmax [21]: 5680 nM
AUClast [22]: 26.25 µM·h
F [23]: 40%

AUC(0-t) at 24 h [5]: 7.43 µM·h
Tmax [24]: 15 min
Cmax [25]: 6980 nM
bioavailability [26]: 37.6%
concentration at 576 h [27]: 150 nM
concentration at 576 h [28]: 40 nM
concentration at 456 h [29]: 140 nM
concentration at 456 h [30]: 20 nM
Tmax [33]: 4.8 min
Cmax [34]: 3460 nM
Vd [35]: 2.49 L/kg
Tmax [36]: 180 min
Cmax [37]: 310 nM
Tmax [38]: 4.8 min
Tmax [39]: 60 min
Cmax [40]: 500 nM
bioavailability [41]: 48%
Vd [42]: 0.73 L/kg
AUC(0-t) at 24 h (in vivo): 9.25 µM·h
SMILES: CC[C@H](Nc1ncnc2[nH]cnc12)c1nc2cccc(F)c2c(=O)n1-c1ccccc1 [IDELALISIB]
concentration at 360 h [31]: 80 nM
concentration at 360 h [32]: 30 nM

Reference: ChEMBL document CHEMBL4715876 (J Med Chem, 2020)
